Assay results taken from ChEMBL document CHEMBL1129595, “Potent 6-desfluoro-8-methylquinolones as new lead compounds in antibacterial chemotherapy” (J Med Chem, 1996).
In brackets after ≈: the same amount, converted by molar mass.

How the values were obtained:
Enterococcus faecalis [1] = assay: In vitro antibacterial activity against Enterococcus faecalis LEP Br; assay type: functional
Enterococcus faecalis [2] = assay: In vitro antibacterial activity against Enterococcus faecalis UCMC 39690; assay type: functional
Enterobacter cloacae = assay: In vitro antibacterial activity against Enterobacter cloacae OMNFI 174; assay type: functional
Escherichia coli [3] = assay: In vitro antibacterial activity against Escherichia coli 120; assay type: functional
Escherichia coli [4] = assay: In vitro antibacterial activity against Escherichia coli ATCC 25922; assay type: functional
DNA gyrase = DNA gyrase (Escherichia coli, UniProt P0AES4+P0AES6); assay: Inhibitory effect against Escherichia coli Gyrase in Supercoiling assay; assay type: protein-complex assay
Haemophilus influenzae = assay: In vitro antibacterial activity against Haemophilus influenzae; assay type: functional
Klebsiella pneumoniae = assay: In vitro antibacterial activity against Klebsiella pneumoniae ATCC 10031; assay type: functional
Proteus mirabilis = assay: In vitro antibacterial activity against Proteus mirabilis OBT 505; assay type: functional
Pseudomonas aeruginosa [5] = assay: In vitro antibacterial activity against Pseudomonas aeruginosa OBT 307; assay type: functional
Proteus vulgaris = assay: In vitro antibacterial activity against Proteus vulgaris CNUR 6; assay type: functional
Staphylococcus aureus [6] = assay: In vitro antibacterial activity against Staphylococcus aureus ATCC 29213; assay type: functional
Staphylococcus aureus [7] = assay: In vitro antibacterial activity against Staphylococcus aureus M-R POMM 6214; assay type: functional
Staphylococcus aureus [8] = assay: In vitro antibacterial activity against Staphylococcus aureus MPR 5; assay type: functional
Staphylococcus aureus [9] = assay: In vitro antibacterial activity against Staphylococcus aureus CPX-R OBT 687; assay type: functional
Streptococcus pneumoniae = assay: In vitro antibacterial activity against Streptococcus pneumoniae I 0.43; assay type: functional
Streptococcus pyogenes = assay: In vitro antibacterial activity against Streptococcus pyogenes OMNFI BI; assay type: functional
[10] = Mean MIC against gram positive; assay type: functional
[11] = Mean MIC against gram negative; assay type: functional
Escherichia coli [12] = assay: In vitro antibacterial activity against Escherichia coliCPX-R OBT 431; assay type: functional
Pseudomonas aeruginosa [13] = assay: In vitro antibacterial activity against Pseudomonas aeruginosa […] 9027; assay type: functional
[14] = Mean MIC Against gram positive; assay type: functional

MIC (Enterococcus faecalis [1]) | MIC (Enterococcus faecalis [2]) | MIC (Enterobacter cloacae) | MIC (Escherichia coli [3]) | MIC (Escherichia coli [4]) | IC50 (DNA gyrase) | MIC (Haemophilus influenzae) | MIC (Klebsiella pneumoniae) | MIC (Proteus mirabilis) | MIC (Pseudomonas aeruginosa [5]) | MIC (Proteus vulgaris) | MIC (Staphylococcus aureus [6]) | MIC (Staphylococcus aureus [7]) | MIC (Staphylococcus aureus [8]) | MIC (Staphylococcus aureus [9]) | MIC (Streptococcus pneumoniae) | MIC (Streptococcus pyogenes) | MIC [11] | MIC (Escherichia coli [12]) | MIC (Pseudomonas aeruginosa [13]) | Structure (SMILES) | further results
0.5 µg/mL (≈ 1.27 µM) | 0.06 µg/mL (≈ 0.153 µM) | 0.5 µg/mL (≈ 1.27 µM) | 0.25 µg/mL (≈ 0.637 µM) | 0.125 µg/mL (≈ 0.319 µM) | 7.64 µM | < 0.016 µg/mL | 0.06 µg/mL (≈ 0.153 µM) | 4 µg/mL (≈ 10.2 µM) | 16 µg/mL (≈ 40.8 µM) | 4 µg/mL (≈ 10.2 µM) | < 0.016 µg/mL | < 0.016 µg/mL | < 0.016 µg/mL | 1 µg/mL (≈ 2.55 µM) | 0.25 µg/mL (≈ 0.637 µM) | 0.03 µg/mL (≈ 0.0764 µM) | 0.869 µg/mL (≈ 2.21 µM) | > 16 µg/mL | 4 µg/mL (≈ 10.2 µM) | Cc1c(N2CCc3ccccc3C2)c(F)cc2c(=O)c(C(=O)O)cn(C3CC3)c12 | MIC [10]: 0.074 µg/mL (≈ 0.189 µM)
0.25 µg/mL (≈ 0.661 µM) | 0.06 µg/mL (≈ 0.159 µM) | 1 µg/mL (≈ 2.64 µM) | 0.25 µg/mL (≈ 0.661 µM) | 0.25 µg/mL (≈ 0.661 µM) | 28.5 µM | < 0.016 µg/mL | 0.125 µg/mL (≈ 0.33 µM) | 4 µg/mL (≈ 10.6 µM) | 8 µg/mL (≈ 21.1 µM) | > 16 µg/mL | < 0.016 µg/mL | 0.25 µg/mL (≈ 0.661 µM) | < 0.016 µg/mL | 8 µg/mL (≈ 21.1 µM) | 0.25 µg/mL (≈ 0.661 µM) | 2 µg/mL (≈ 5.29 µM) | 1.15 µg/mL (≈ 3.04 µM) | > 16 µg/mL | 4 µg/mL (≈ 10.6 µM) | O=C(O)c1cn(C2CC2)c2cc(N3CCc4ccccc4C3)c(F)cc2c1=O | MIC [10]: 0.21 µg/mL (≈ 0.555 µM)
0.5 µg/mL (≈ 1.46 µM) | 1 µg/mL (≈ 2.93 µM) | 1 µg/mL (≈ 2.93 µM) | 0.5 µg/mL (≈ 1.46 µM) | 0.125 µg/mL (≈ 0.366 µM) | 9.37 µM | < 0.016 µg/mL | < 0.016 µg/mL | 4 µg/mL (≈ 11.7 µM) | 16 µg/mL (≈ 46.9 µM) | > 16 µg/mL | 0.05 µg/mL (≈ 0.146 µM) | 0.125 µg/mL (≈ 0.366 µM) | < 0.016 µg/mL | 8 µg/mL (≈ 23.4 µM) | 2 µg/mL (≈ 5.86 µM) | 0.5 µg/mL (≈ 1.46 µM) | 1 µg/mL (≈ 2.94 µM) | > 16 µg/mL | 4 µg/mL (≈ 11.7 µM) | Cc1c(N2CCCCC2)c(N)cc2c(=O)c(C(=O)O)cn(C3CC3)c12 | MIC [10]: 0.376 µg/mL (≈ 1.1 µM)
0.5 µg/mL (≈ 1.51 µM) | 0.25 µg/mL (≈ 0.757 µM) | 0.5 µg/mL (≈ 1.51 µM) | 0.25 µg/mL (≈ 0.757 µM) | 0.125 µg/mL (≈ 0.378 µM) | 97.2 µM | < 0.016 µg/mL | < 0.016 µg/mL | 2 µg/mL (≈ 6.05 µM) | 4 µg/mL (≈ 12.1 µM) | > 16 µg/mL | 0.03 µg/mL (≈ 0.0908 µM) | 0.25 µg/mL (≈ 0.757 µM) | 0.03 µg/mL (≈ 0.0908 µM) | > 16 µg/mL | 1 µg/mL (≈ 3.03 µM) | 8 µg/mL (≈ 24.2 µM) | 0.71 µg/mL (≈ 2.15 µM) | > 16 µg/mL | 4 µg/mL (≈ 12.1 µM) | O=C(O)c1cn(C2CC2)c2cc(N3CCCCC3)c(F)cc2c1=O | MIC [14]: 0.495 µg/mL (≈ 1.5 µM)
2 µg/mL (≈ 5.61 µM) | 4 µg/mL (≈ 11.2 µM) | 0.125 µg/mL (≈ 0.351 µM) | 0.06 µg/mL (≈ 0.168 µM) | 0.03 µg/mL (≈ 0.0842 µM) | 10.7 µM | 0.03 µg/mL (≈ 0.0842 µM) | 0.03 µg/mL (≈ 0.0842 µM) | 1 µg/mL (≈ 2.81 µM) | 8 µg/mL (≈ 22.4 µM) | 8 µg/mL (≈ 22.4 µM) | 1 µg/mL (≈ 2.81 µM) | 4 µg/mL (≈ 11.2 µM) | 1 µg/mL (≈ 2.81 µM) | > 16 µg/mL | 8 µg/mL (≈ 22.4 µM) | 4 µg/mL (≈ 11.2 µM) | 0.459 µg/mL (≈ 1.29 µM) | > 16 µg/mL | 2 µg/mL (≈ 5.61 µM) | Cc1c(N2CCN(C)CC2)c(N)cc2c(=O)c(C(=O)O)cn(C3CC3)c12 | MIC [10]: 3.36 µg/mL (≈ 9.44 µM)
